From US12319655B2, “RAF kinase inhibitors and methods of use thereof” (Deciphera Pharmaceuticals, LLC, priority 2021, dated 2025)

These compounds were tested on WM3629 cells (assay: WM3629 Cell Proliferation Assay (1)). Conditions: not given.
Type: cell-based
Procedure: WM3629 Cell Proliferation Assay (1)
WM3629 cells (#WM3629-01-0001) are obtained from Rockland Immunochemicals Inc (Gilbertsville, PA). Briefly, cells were grown in MCDB 153 medium (Sigma, #M7403, St. Louis, MO) supplemented with 20% Leibovitz's L-15 (ThermoFisher #11415-064, Waltham, MA), 2% heat inactivated fetal bovine serum (ThermoFisher, #A3840001, Waltham, MA), 5 μg/mL Insulin (Bovine Pancreas) (Sigma, #10516, St. Louis, MO), 1.68 mM Calcium Chloride (Sigma, #C-34006, St. Louis, MO) and 1% Penicillin/Streptomycin/L-Glutamine (ThermoFisher #10378016, Waltham, MA) at 37° C., 5% CO2, and 95% humidity. Cells are expanded until reaching 70-95% confluency at which point they are subcultured or harvested for assay use. A serial dilution of test compound is dispensed into a 96-well black clear bottom plate in triplicate. Four thousand five hundred cells are added per well in 200 μL complete growth medium in the 96-well plate. Plates are incubated for 67-72 hours at 37° C., 5% CO2, and 95% humidity. At the end of the incubation, 40 μL of a 440 μM solution of resazurin (Sigma, #199303, St. Louis, MO) in PBS is added to each well of the plate and plates are incubated for an additional 6-7 hours at 37° C., 5% CO2, and 95% humidity. Plates are read on a Synergy2 or equivalent reader (Biotek, Winooski VT) using an excitation of 540 nm and an emission of 600 nm. Data is analyzed using Prism software (GraphPad, San Diego, CA) to calculate IC50 values.

SMILES	IC50
CNC(=O)c1cc(-c2cc(-c3cc(NC(=O)c4ccnc(C5(C#N)CC5)c4)ccc3C)ncn2)ccn1 [Example 178]	≤ 100 nM
Cc1ccc(NC(=O)c2ccnc(C3(C#N)CC3)c2)cc1-c1ccnc(-c2ccnc(NC(=O)C3CC3)c2)n1 [Example 180]	≤ 100 nM
Cc1ncc(NC(=O)c2ccnc(C(C)(C)C#N)c2)cc1-c1cccc(-c2cc(NC(=O)C3CC3)ncn2)c1 [Example 181]	≤ 100 nM

These compounds were tested on Miapaca-2 cells (assay: MiaPaca-2 Combination Cell proliferation Assay (1) with cobimetinib). Conditions: MiaPaca-2 cell proliferation, read-out: MiaPaca-2 Combo (1) IC50.
Type: cell-based
Procedure: MiaPaca-2 Combination Cell proliferation Assay (1)
Miapaca-2 cells (catalog #CRL-1420) are obtained from the American Type Culture Collect (ATCC, Manassas, VA). Briefly, cells were grown in DMEM supplemented with 10% characterized fetal bovine serum (Invitrogen, Carlsbad, CA), 2.5% New Zealand sourced horse serum and 1% Penicillin/Streptomycin/L-Glutamine at 37° C., 5% CO2, and 95% humidity. Cells are expanded until reaching 70-95% confluency at which point they are subcultured or harvested for assay use. A serial dilution of test compound was dispensed into multiple 96-well black clear bottom plates in triplicate. A serial dilution of complete growth medium containing cobimetinib was prepared at twice the final concentration and 100 μL was dispensed across the test compound titration in triplicate. Three thousand cells are added per well in 100 μL complete growth medium in each 96-well plate. Plates are incubated for 67-72 hours at 37° C., 5% CO2, and 95% humidity. At the end of the incubation, 40 μL of a 440 μM solution of resazurin (Sigma, St. Louis, MO) in PBS is added to each well of the plate and plates are incubated for an additional 5-7 hours at 37° C., 5% CO2, and 95% humidity. Plates are read on a Synergy2 or equivalent reader (Biotek, Winooski VT) using an excitation of 540 nm and an emission of 600 nm. Drug synergy was assessed via BLISS analysis in the Combenefit software (Cancer Research UK Cambridge Institute, Cambridge, UK). Data is analyzed using Prism software (Graphpad, San Diego, CA) to calculate IC50 values. Shifts in test compound IC50 values are reported from top-constrained combination therapy curves.

IC50	SMILES
≤ 100 nM	CC(=O)Nc1cc(-c2cc(-c3cc(NC(=O)c4ccnc(C(F)(F)F)c4)c(F)cc3C)cc(C)n2)ccn1 [Example 4]
100 to 500 nM	Cc1cc(F)c(NC(=O)c2ccnc(C(F)(F)F)c2)cc1-c1ccnc(-c2ccnc(NC(=O)CN(C)C)c2)c1 [Example 7]
≤ 100 nM	CC(=O)Nc1cc(-c2ccnc(-c3cc(NC(=O)c4ccnc(C(C)(C)C#N)c4)ccc3C)n2)ccn1 [Example 103]
≤ 100 nM	Cc1cc(F)c(NC(=O)c2ccnc(C(C)(C)C#N)c2)cc1-c1ccnc(-c2ccnc(NC=O)c2)c1 [Example 104]
≤ 100 nM	Cc1ccc(NC(=O)c2ccnc(C(C)(C)C#N)c2)cc1-c1cncc(-c2ccnc(NC(=O)C3CC3)c2)n1 [Example 112]
≤ 100 nM	Cc1ccc(NC(=O)c2ccnc(C(F)F)c2)cc1-c1cncc(-c2ccnc(NC(=O)C3CC3)c2)n1 [Example 117]
≤ 100 nM	CC(=O)Nc1cc(-c2nccc(-c3cc(NC(=O)c4ccnc(C(C)(C)C#N)c4)ccc3C)n2)ccn1 [Example 118]
≤ 100 nM	CC(=O)Nc1cc(-c2cncc(-c3cc(NC(=O)c4cc(C(F)(F)F)ccn4)ccc3C)n2)ccn1 [Example 124]
≤ 100 nM	CNC(=O)c1cc(-c2cc(-c3cc(NC(=O)c4cccc(C(C)(C)C#N)c4)ccc3C)ccn2)ccn1 [Example 127]
100 to 500 nM	Cc1ccc(NC(=O)c2ccnc(C(C)(C)C#N)c2)cc1-c1cccc(-c2ccnc3[nH]ncc23)c1 [Example 134]
100 to 500 nM	CNC(=O)c1cc(-c2cncc(-c3cc(NC(=O)c4ccnc(C5(C#N)CC5)c4)ccc3C)n2)ccn1 [Example 138]
≤ 100 nM	CNC(=O)c1cc(-c2cc(-c3cc(NC(=O)c4ccnc(C(C)(C)C#N)c4)cnc3C)ccn2)ccn1 [Example 158]
100 to 500 nM	CNc1cc(-c2cccc(-c3cc(NC(=O)c4ccnc(C(C)(C)C#N)c4)ccc3C)c2)ncn1 [Example 160]
≤ 100 nM	Cc1ncc(NC(=O)c2ccnc(C(C)(C)C#N)c2)cc1-c1cccc(-c2ccnc(NC(=O)C3CC3)c2)n1 [Example 172]
≤ 100 nM	CNC(=O)c1cc(-c2nccc(-c3cc(NC(=O)c4ccnc(C5(C#N)CC5)c4)ccc3C)n2)ccn1 [Example 175]
≤ 100 nM	Cc1ncc(NC(=O)c2ccnc(C(C)(C)C#N)c2)cc1-c1cccc(-c2cc(NC(=O)C3CC3)ncn2)c1 [Example 181]
≤ 100 nM	Cc1ccc(NC(=O)c2ccnc(C3CC3)c2)cc1-c1cncc(-c2ccnc(NC(=O)C3CC3)c2)n1 [Example 184]
